Test results: patent US9034886B2, “4-aminoquinazoline derivatives and uses thereof” (Shanghai Institute of Pharmaceutical Industry, priority 2011, dated 2015)

Columns and labels:
[1] = test system: PANC-1 human pancreatic cancer cells; assay: In vitro anti-proliferative effect, CCK-8 method, PANC-1; format: cell-based; conditions: Homo sapiens, PANC-1
In short: (§1)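 Read-out: CCK-8 viability, expressed as % inhibition; two test concentrations, 100 μM and 10 μM.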

HDACs = assay: In vitro inhibition of HDACs (HDAC Inhibitor Drug Screening Kit, Biovision K340-100); format: biochemical; conditions: for inhibitory activity on HDACs compared with MS-275: concentrations of 2 mM, 200 μM, and 40 μM
Description: The in vitro inhibitory activities of the compounds towards HDACs were tested according to the instructions in the HDAC Inhibitor Drug Screening Kit (Biovision/Catalog #K340-100).
(1) The compounds to be tested were each individually prepared as 2 mM, 200 μM and 40 μM solutions and their inhibitory activities at these concentrations were tested.

[2] = test system: Jurkat E6-1 human T-cell lymphoma; assay: In vitro anti-proliferative effect, CCK-8 method, Jurkat E6-1; format: cell-based; conditions: Homo sapiens, Jurkat E6.1
In short: as §1

[3] = test system: PC-3 human prostate cancer; assay: In vitro anti-proliferative effect, CCK-8 method, PC-3; format: cell-based; conditions: Homo sapiens; for inhibition at 10 µM / inhibition at 100 µM: PC-3 cell strain, CCK-8 method; for inhibition at 10 µM: compound at 10 μM; for inhibition at 100 µM: compound at 100 μM
In short: as §1

[4] = test system: Colo320 human colorectal cancer cell lines; assay: In vitro anti-proliferative effect, CCK-8 method, Colo320; format: cell-based; conditions: Homo sapiens, COLO 320; for inhibition at 10 µM / inhibition at 100 µM: Colo320 cell strain, CCK-8 method; for inhibition at 10 µM: compound at 10 μM; for inhibition at 100 µM: compound at 100 μM
In short: as §1

[5] = Maximum tolerance dose through intragastrical administration; format: in vivo; conditions: mice, administrated intragastrically
Description: Forty ICR mice, half female and half male, weighing […] were divided into four groups, 10 mice in each group. After the mice were fasted for 6 h, the compound to be tested was administrated intragastrically to each group at a volume of 0.3 ml/10 g by using a sterile plastic syringe. General physical signs and the deaths of the animals were record at 1, 2 and 4 h after the administration. The animals were then observed continuously for 14 days and their weights, physical signs and deaths were observed and recorded every day. Dead animals were dissected to see if there was any visible pathological change in the animal's viscera and pathological examination was performed on suspicious tissues and organs. A part of the experimental results is as follows.

HDAC1 = HDAC1 (Homo sapiens (Human), UniProt Q13547); assay: In vitro inhibition of subtype HDAC1 (HDAC1 Inhibitor Drug Screening Kit, Biovision); format: biochemical; conditions: for inhibition at 1 µM / inhibition at 10 µM: read-out: % Inhibition towards HDAC1
Chain of HDAC1 (Q13547 whole entry): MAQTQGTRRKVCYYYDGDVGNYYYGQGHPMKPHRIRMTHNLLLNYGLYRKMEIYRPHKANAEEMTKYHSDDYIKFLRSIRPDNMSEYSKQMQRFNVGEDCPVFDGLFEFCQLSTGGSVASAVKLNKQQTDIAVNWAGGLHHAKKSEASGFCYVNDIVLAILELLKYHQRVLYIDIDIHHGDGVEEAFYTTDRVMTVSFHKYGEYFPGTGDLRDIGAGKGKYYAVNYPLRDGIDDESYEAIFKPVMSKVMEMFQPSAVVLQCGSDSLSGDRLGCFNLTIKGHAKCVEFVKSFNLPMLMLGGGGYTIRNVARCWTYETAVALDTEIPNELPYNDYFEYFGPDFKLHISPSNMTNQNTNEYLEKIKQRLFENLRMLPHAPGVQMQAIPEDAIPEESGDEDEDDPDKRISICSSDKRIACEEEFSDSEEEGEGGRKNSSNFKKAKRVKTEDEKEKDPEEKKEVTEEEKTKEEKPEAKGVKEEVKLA
Description: The in vitro inhibitory activities of the compounds towards the subtype HDAC1 were tested according to the instructions in the HDAC1 Inhibitor Drug Screening Kit (Biovision).
(1) The compounds to be tested were each individually prepared as 10 μM and 1 μM solutions and their inhibitory activities at these concentrations were tested.
Each dilution sample was placed in two wells and the enzyme inhibition IC50 of the compound was tested.

[6] = test system: MDA-MB-435s human breast cancer cells; assay: In vitro anti-proliferative effect, CCK-8 method, MDA-MB-435s; format: cell-based; conditions: Homo sapiens, MDA-MB-435S
In short: as §1

[7] = test system: Hep3B2.1-7 human liver cancer cells; assay: In vitro anti-proliferative effect, CCK-8 method, Hep3B; format: cell-based; conditions: Homo sapiens; for inhibition at 10 µM / inhibition at 100 µM: Hep3B cell strain, CCK-8 method; for inhibition at 10 µM: compound at 10 μM; for inhibition at 100 µM: compound at 100 μM
In short: as §1

[8] = test system: Hut78 T lymphocytic leukemia cells; assay: In vitro anti-proliferative effect, CCK-8 method, Hut78; format: cell-based; conditions: Homo sapiens, HuT78; for inhibition at 10 µM / inhibition at 100 µM: read-out: Hut-78 (inhibition %)
In short: (§2)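 Percent growth inhibition, measured with CCK-8, in Hut78 and K562 leukemia cells at two compound concentrations, 10 μM and 100 μM.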

[9] = test system: K562 human chronic myelogenous leukemia cells; assay: In vitro anti-proliferative effect, CCK-8 method, K562; format: cell-based; conditions: Homo sapiens, K562
In short: as §2

[10] = test system: A549 human lung cancer cells; assay: In vitro anti-proliferative effect, CCK-8 method, A549; format: cell-based; conditions: Homo sapiens, A549
In short: as §1

SMILES	inhibition at 10 µM [1] [%]	inhibition at 100 µM [1] [%]	Inhibition percentage (%) towards HDACs (HDACs; 40 μM) [%]	Inhibition percentage (%) towards HDACs (HDACs; 200 μM) [%]	Inhibition percentage (%) towards HDACs (HDACs; 2 mM) [%]	inhibition at 10 µM [2] [%]	inhibition at 100 µM [2] [%]	inhibition at 10 µM [3] [%]	inhibition at 100 µM [3] [%]	inhibition at 10 µM [4] [%]	inhibition at 100 µM [4] [%]	maximum tolerance dose [5]	inhibition at 1 µM (HDAC1) [%]	inhibition at 10 µM (HDAC1) [%]	inhibition at 10 µM [6] [%]	inhibition at 100 µM [6] [%]	inhibition at 10 µM [7] [%]	inhibition at 100 µM [7] [%]	inhibition at 10 µM [8] [%]	inhibition at 100 µM [8] [%]	further results
COc1ccc2ncnc(Nc3ccc(C(=O)Nc4cc(F)ccc4N)cc3)c2c1 [Compound V-6, N-(2-amino-5-fluorophenyl)-4-(6-methoxyquinazoline-4-amino)benzamide]	16.9	19.7	34.5	58.0	87.1	27.2	93.3	23.7	56	-5.5	59.2	over 5000 mg/kg	6.47	50.1	8	79.1	-7	57.5	15.5	66.6	IC50 (HDACs): 1830 nM; inhibitory activity according to in vitro IC50 value against HDACs compared with MS-275 (HDACs): better inhibitory activities than MS-275; inhibitory activity on HDACs compared with MS-275 (HDACs): significantly stronger inhibitory activities than MS-275; inhibition at 10 µM [9]: 53.6%; inhibition at 100 µM [9]: 87.2%; inhibition at 10 µM [10]: -16.9%; inhibition at 100 µM [10]: 45.7%
Nc1ccc(F)cc1NC(=O)c1ccc(Nc2ncnc3c(F)cccc23)cc1 [Compound V-14, N-(2-amino-5-fluorophenyl)-4-(8-fluoroquinazoline-4-amino)benzamide]	-2.8	15.7	46.8	67.1	94.8	23.8	96.5	22.9	84.4	-14.3	82.7	over 2000 mg/kg	1.48	28.9	19.5	63.9	7.2	79.3	22	91.1	IC50 (HDACs): 3770 nM; inhibitory activity according to in vitro IC50 value against HDACs compared with MS-275 (HDACs): better inhibitory activities than MS-275; inhibitory activity on HDACs compared with MS-275 (HDACs): significantly stronger inhibitory activities than MS-275; IC50 [2]: 1390 nM; IC50 [3]: 3570 nM; IC50 [4]: 27000 nM; IC50 ([7]; Hep3B): 16000 nM; IC50 [8]: 55.8 nM; IC50 [9]: 2810 nM; inhibition at 10 µM [9]: 34%; inhibition at 100 µM [9]: 88.7%; IC50 [10]: 5090 nM; inhibition at 10 µM [10]: -17.6%; inhibition at 100 µM [10]: 72.2%
COc1cc2ncnc(Nc3ccc(C(=O)Nc4cc(F)ccc4N)cc3)c2cc1OCCCN1CCOCC1 [Compound V-18, N-(2-amino-5-fluorophenyl)-4-[7-methoxy-6-(3-morpholinylpropoxy)quinazoline-4-amino]benzamide]	0.9	23.9	30.4	56.8	66.0	76.6	95.7	45.2	72.2	7.7	56.3	over 2000 mg/kg	59.8	80.8	22.7	81.4	13.8	75.1	39.9	82.3	IC50 (HDACs): 1020 nM; IC50 (HDAC1): 330 nM; inhibitory activity against HDAC1 compared with MS-275 (HDAC1; both concentrations 10 μM and 1 μM): superior to that of MS-275; inhibition at 10 µM [9]: 58.5%; inhibition at 100 µM [9]: 87.5%; inhibition at 10 µM [10]: 9.5%; inhibition at 100 µM [10]: 79.1%
COc1cc2ncnc(Nc3ccc(C(=O)Nc4cc(-c5ccco5)ccc4N)cc3)c2cc1OC [Compound V-25, N-[2-amino-5-(2-furyl)phenyl]-4-(6,7-dimethoxyquinazoline-4-amino)benzamide]	20.8	39.5	20.5	55.2	72.8	12.5	83.3	-9.4	22.1	7.9	14.1	over 5000 mg/kg	24.2	53.8	30.8	61.2	11.3	40.6	18.1	60	inhibition at 10 µM [9]: 34.1%; inhibition at 100 µM [9]: 64.8%; inhibition at 10 µM [10]: 2.4%; inhibition at 100 µM [10]: 12%
